Experimental data as given in patent US20050004126A1 (priority 2001, published 2005).
Like-named read-outs stand apart in the source and are kept apart here.

Target: MMP-13CD (catalytic domain of collagenase 3) (Homo sapiens, UniProt P45452)
Assay: Thiopeptolide hydrolysis assay, MMP-13;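 also: inhibition of enzymatic thiopeptolide substrate cleavage (100 µM) in pH 6.0 MES buffer with CaCl2 and DTNB, comparing hydrolysis with versus without inhibitor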
[1] = read-out: MMP 13 IC50 μM, Table III

Row | IC50 (MMP13 IC50 μM, Table IVb) [µM] | SMILES | further results
1 | 0.1 | CCn1c(=O)n(Cc2cccc(F)c2)c(=O)c2cc(C(=O)NCc3ccncc3)ccc21 | 
2 | 0.36 | CCn1c(=O)n(Cc2cccc(F)c2)c(=O)c2cc(C(=O)NCc3cccnc3)ccc21 | 
3 | 0.59 | COc1ccc(CNC(=O)c2ccc3c(c2)c(=O)n(CCCc2ccccc2)c(=O)n3C)cc1 | 
4 | 0.008 | COc1ccc(CNC(=O)c2ccc3c(c2)c(=O)n(Cc2ccc(S(N)(=O)=O)cc2)c(=O)n3C)cc1 | 
5 | 0.095 | COc1ccc(CNC(=O)c2ccc3c(c2)c(=O)n(C/C=C/c2cccnc2)c(=O)n3C)cc1 | 
6 | 0.035 | COc1ccc(CNC(=O)c2ccc3c(c2)c(=O)n(C/C=C/c2ccncc2)c(=O)n3C)cc1 | 
7 | 5.4 | COc1ccc(CNC(=O)c2ccc3c(c2)c(=O)n(CC2CCCN(C)C2)c(=O)n3C)cc1 (stereo not shown) | 
8 | 9.3 | COc1ccc(CNC(=O)c2ccc3c(c2)c(=O)n(CCN2CCOCC2)c(=O)n3C)cc1 | 
9 | 0.0044 | CNS(=O)(=O)c1ccc(Cn2c(=O)c3cc(C(=O)NCc4ccc(OC)cc4)ccc3n(C)c2=O)cc1 | 
10 | 0.014 | COc1ccc(CNC(=O)c2ccc3c(c2)c(=O)n(Cc2ccc([N+](=O)[O-])cc2)c(=O)n3C)cc1 | 
11 | 0.0033 | COc1ccc(CNC(=O)c2ccc3c(c2)c(=O)n(Cc2ccc(C4(C(=O)O)CC4)cc2)c(=O)n3C)cc1 | 
12 |  | COC(=O)c1nc(Cn2c(=O)c(C)c3sc(C(=O)NCc4ccc(F)cc4)cn3c2=O)ncc1OC | IC50 (MMP13 IC50 (μM), Table 1b): 1.85 µM
13 |  | COc1cccc(CNC(=O)c2cc3c(=O)n(Cc4ccc(OC(C)(C)C(=O)O)cc4)c(=O)n(C)c3s2)c1 | IC50 [1]: 0.0185 µM
14 | 0.042 | COc1ccc(CNC(=O)c2ccc3c(c2)c(=O)n(CC2CCCCC2)c(=O)n3C)cc1 | 
15 | 0.95 | COc1ccc(CNC(=O)c2ccc3c(c2)c(=O)n(CC2CC2)c(=O)n3C)cc1 | 
16 | 6.35 | COc1ccc(CNC(=O)c2ccc3c(c2)c(=O)n(CCO)c(=O)n3C)cc1 | 
17 | 1.35 | COCCn1c(=O)c2cc(C(=O)NCc3ccc(OC)cc3)ccc2n(C)c1=O | 
18 | 3.64 | CCN(CC)c1ccc(C(=O)Cn2c(=O)c3cc(C(=O)NCc4ccc(OC)cc4)ccc3n(C)c2=O)cc1 | 
19 | 0.012 | COc1ccc(CNC(=O)c2ccc3c(c2)c(=O)n(Cc2ccc(F)c(Cl)c2)c(=O)n3C)cc1 | 
20 | 0.027 | COc1ccc(CNC(=O)c2ccc3c(c2)c(=O)n(Cc2cccc(C#N)c2)c(=O)n3C)cc1 | 
21 | 0.0058 | COc1cc(CNC(=O)c2ccc3c(c2)c(=O)n(Cc2cccc(F)c2)c(=O)n3C)ccn1 | 
22 | 0.067 | Cn1c(=O)n(Cc2cccc(F)c2)c(=O)c2cc(C(=O)NCc3cccnc3)ccc21 | 

Row | IC50 (MMP13 IC50 μM, Table IVb) [µM] | SMILES | further results
23 | 0.0079 | COc1ccc(CNC(=O)c2ccc3c(c2)c(=O)n(Cc2cccc(F)c2)c(=O)n3C)cc1 | 
24 | 0.021 | COc1cccc(CNC(=O)c2ccc3c(c2)c(=O)n(Cc2cccc(F)c2)c(=O)n3C)c1 | 
25 | 0.023 | COc1ccc(CNC(=O)c2ccc3c(c2)c(=O)n(Cc2cccc(OC)c2)c(=O)n3C)cc1 | 
26 | 0.026 | Cn1c(=O)n(Cc2ccc(F)c(Cl)c2)c(=O)c2cc(C(=O)NCc3ccncc3)ccc21 | 
27 | 0.067 | Cn1c(=O)n(Cc2ccc(F)c(F)c2)c(=O)c2cc(C(=O)NCc3cccnc3)ccc21 | 
28 | 0.032 | Cn1c(=O)n(Cc2ccc(F)c(F)c2)c(=O)c2cc(C(=O)NCc3ccncc3)ccc21 | 
29 | 0.0098 | COc1ccc(CNC(=O)c2ccc3c(c2)c(=O)n(Cc2ccc(F)c(F)c2)c(=O)n3C)cc1 | 
30 | 0.0093 | COc1ccc(CNC(=O)c2ccc3c(c2)c(=O)n(Cc2ccc(N)cc2)c(=O)n3C)cc1 | 
31 | 0.013 | COc1ccc(CNC(=O)c2ccc3c(c2)c(=O)n(Cc2ccc(Br)cc2)c(=O)n3C)cc1 | 
32 | 0.0076 | COc1cc(CNC(=O)c2ccc3c(c2)c(=O)n(Cc2ccc(Br)cc2)c(=O)n3C)ccn1 | 
33 | 0.0043 | COc1cccc(CNC(=O)c2ccc3c(c2)c(=O)n(Cc2ccc(Cl)cc2)c(=O)n3C)c1 | 
34 | 0.011 | COc1cc(CNC(=O)c2ccc3c(c2)c(=O)n(Cc2ccc(Cl)cc2)c(=O)n3C)ccn1 | 
35 | 0.093 | Cn1c(=O)n(Cc2ccc(Cl)cc2)c(=O)c2cc(C(=O)NCc3cccnc3)ccc21 | 
36 | 0.053 | Cn1c(=O)n(Cc2ccc(Cl)cc2)c(=O)c2cc(C(=O)NCc3ccncc3)ccc21 | 
37 | 0.008 | COc1ccc(CNC(=O)c2ccc3c(c2)c(=O)n(Cc2ccc(C#N)cc2)c(=O)n3C)cc1 | 
38 | 0.012 | COc1ccc(CNC(=O)c2ccc3c(c2)c(=O)n(Cc2ccc(C(=O)N(C)C)cc2)c(=O)n3C)cc1 | 
39 | 0.008 | COc1ccc(CNC(=O)c2ccc3c(c2)c(=O)n(Cc2ccc(CC(=O)N(C)C)cc2)c(=O)n3C)cc1 | 
40 | 0.007 | COc1ccc(CNC(=O)c2ccc3c(c2)c(=O)n(Cc2ccc(S(=O)(=O)N(C)C)cc2)c(=O)n3C)cc1 | 
41 | 0.071 | Cn1c(=O)n(Cc2ccc(F)cc2)c(=O)c2cc(C(=O)NCc3ccncc3)ccc21 | 
42 | 0.011 | COc1cc(CNC(=O)c2ccc3c(c2)c(=O)n(Cc2ccc(F)cc2)c(=O)n3C)ccn1 | 
43 | 0.0046 | COc1cccc(CNC(=O)c2ccc3c(c2)c(=O)n(Cc2ccc(F)cc2)c(=O)n3C)c1 | 
44 | 0.12 | Cn1c(=O)n(Cc2ccc(F)cc2)c(=O)c2cc(C(=O)NCc3cccnc3)ccc21 | 

Row | IC50 (MMP13 IC50 μM, Table IVb) [µM] | SMILES | further results
45 | 0.0145 | COc1ccc(CNC(=O)c2ccc3c(c2)c(=O)n(Cc2ccc(F)cc2)c(=O)n3C)cc1 | 
46 | 0.0125 | COc1ccc(CNC(=O)c2ccc3c(c2)c(=O)n(Cc2ccc(S(C)(=O)=O)cc2)c(=O)n3C)cc1 | 
47 | 0.055 | COc1ccc(CNC(=O)c2ccc3c(c2)c(=O)n(Cc2ccc(S(=O)(=O)NCCN(C)C)cc2)c(=O)n3C)cc1 | 
48 | 0.018 | COc1ccc(CNC(=O)c2ccc3c(c2)c(=O)n(Cc2cccc(C(=O)O)c2)c(=O)n3C)cc1 | 
49 |  | CC(=O)Nc1ccc(C(=O)NCc2ccc3c(c2)OCO3)cc1C(=O)NCc1ccc2c(c1)OCO2 | IC50 (MMP13 IC50 (nM), Table II): 5.2 µM
50 |  | Nc1ccc(C(=O)NCc2ccc3c(c2)OCO3)cc1C(=O)NCc1ccc2c(c1)OCO2 | IC50 (MMP13 IC50 (nM), Table II): 4.1 µM
51 |  | CCOc1ccc(C(=O)NCc2cccc(OC)c2)cc1C(=O)NCc1cccc(OC)c1 | IC50 (MMP13 IC50 (nM), Table II): 1.83 µM
52 |  | COc1ccc(CNC(=O)c2ccc(OC)c(C(=O)NCc3ccncc3)c2)cc1 | IC50 (MMP13 IC50 (nM), Table II): 1.5 µM
53 | 0.002 | Cn1c(=O)n(Cc2ccc(C(=O)O)cc2)c(=O)c2cc(C(=O)NCc3ccc(O)cc3)ccc21 | 
54 | 1.4 | COc1ccc(CNC(=O)c2ccc3c(c2)c(=O)n(CC=CC(=O)O)c(=O)n3C)cc1 | 
55 | 1.15 | COc1ccc(CNC(=O)c2ccc3c(c2)c(=O)n(CCCC(=O)O)c(=O)n3C)cc1 | 
56 | 0.039 | COc1ccc(CNC(=O)c2ccc3c(c2)c(=O)n(Cc2ccc(C(=O)OCOC(=O)C(NC(=O)C(N)C(C)C)C(C)C)cc2)c(=O)n3C)cc1 (stereo not shown) | 
57 | 0.037 | COc1ccc(CNC(=O)c2ccc3c(c2)c(=O)n(Cc2ccc(C(=O)OCCN(C)C)cc2)c(=O)n3C)cc1 | 
58 | 0.088 | COc1ccc(CNC(=O)c2ccc3c(c2)c(=O)n(Cc2ccc(C(=O)OCC(=O)OC(C)(C)C)cc2)c(=O)n3C)cc1 | 
59 | 0.0084 | COc1ccc(CNC(=O)c2ccc3c(c2)c(=O)n(Cc2ccc(C(=O)O)s2)c(=O)n3C)cc1 | 
60 | 0.057 | COc1ccc(CNC(=O)c2ccc3c(c2)c(=O)n(Cc2ccc(C(=O)O)o2)c(=O)n3C)cc1 | 
61 |  | Cc1c(=O)n(CCS(=O)(=O)c2ccc(F)cc2)c(=O)n2cc(C(=O)NCc3ccc(F)cc3)sc12 | IC50 (MMP13 IC50 (μM), Table 1b): 0.645 µM
62 |  | Cc1c(=O)n(CCC(=O)c2ccc(F)cc2)c(=O)n2cc(C(=O)NCc3ccc(F)cc3)sc12 | IC50 (MMP13 IC50 (μM), Table 1b): 0.51 µM
63 |  | C/C=C/Cn1c(=O)c(C)c2sc(C(=O)NCc3ccc(F)cc3)cn2c1=O | IC50 (MMP13 IC50 (μM), Table 1b): 0.53 µM
64 |  | CCC(C)n1c(=O)c(C)c2sc(C(=O)NCc3ccc(F)cc3)cn2c1=O (stereo not shown) | IC50 (MMP13 IC50 (μM), Table 1b): 0.4 µM
65 |  | Cc1c(=O)n(CCOc2ccccc2)c(=O)n2cc(C(=O)NCc3ccc(F)cc3)sc12 | IC50 (MMP13 IC50 (μM), Table 1b): 0.058 µM
66 |  | Cc1c(=O)n(CCS(=O)(=O)Cc2ccccc2)c(=O)n2cc(C(=O)NCc3ccc(F)cc3)sc12 | IC50 (MMP13 IC50 (μM), Table 1b): 0.56 µM

Row | IC50 (MMP13 IC50 μM, Table IVb) [µM] | SMILES | further results
67 |  | CC/C=C/Cn1c(=O)c(C)c2sc(C(=O)NCc3ccc(F)cc3)cn2c1=O | IC50 (MMP13 IC50 (μM), Table 1b): 0.16 µM
68 |  | CCC#CCn1c(=O)c(C)c2sc(C(=O)NCc3ccc(F)cc3)cn2c1=O | IC50 (MMP13 IC50 (μM), Table 1b): 0.092 µM
69 |  | CC(C)=CCn1c(=O)c(C)c2sc(C(=O)NCc3ccc(F)cc3)cn2c1=O | IC50 (MMP13 IC50 (μM), Table 1b): 0.82 µM
70 |  | COc1ccc(CNC(=O)c2cc3c(=O)n(CCS(=O)(=O)c4ccccc4)c(=O)n(C)c3s2)cc1 | IC50 [1]: 4 µM
71 | 2.55 | CCOC(=O)CCCn1c(=O)c2cc(C(=O)NCc3ccc(OC)cc3)ccc2n(C)c1=O | 
72 | 0.65 | CCOC(=O)Cn1c(=O)c2cc(C(=O)NCc3ccc(OC)cc3)ccc2n(C)c1=O | 
73 | 0.12 | COC(=O)c1cccc(Cn2c(=O)c3cc(C(=O)NCc4ccc(OC)cc4)ccc3n(C)c2=O)c1 | 
74 | 2.1 | COC(=O)CCn1c(=O)c2cc(C(=O)NCc3ccc(OC)cc3)ccc2n(C)c1=O | 
75 | 0.29 | COC(=O)c1ccc(Cn2c(=O)c3cc(C(=O)NCc4ccc(OC)cc4)ccc3n(C)c2=O)o1 | 
76 | 0.021 | COC(=O)c1ccc(Cn2c(=O)c3cc(C(=O)NCc4ccc(OC)cc4)ccc3n(C)c2=O)s1 | 
77 | 0.0034 | COC(=O)Cc1ccc(Cn2c(=O)c3cc(C(=O)NCc4ccc(OC)cc4)ccc3n(C)c2=O)cc1 | 
78 |  | COc1ccc(C(=O)NCc2ccc3c(c2)OCO3)cc1C(=O)NCCOc1ccccc1 | IC50 (MMP13 IC50 (nM), Table II): 4.4 µM
79 |  | COc1ccc(C(=O)NCc2ccccc2)cc1C(=O)NCCOc1ccccc1 | IC50 (MMP13 IC50 (nM), Table II): 8.7 µM
80 |  | COc1ccc(CNC(=O)c2ccc(OC)c(C(=O)NCc3ccccc3)c2)cc1 [listing 1 of 2 here] | IC50 (MMP13 IC50 (nM), Table II): 0.43 µM
81 |  | COc1cccc(CNC(=O)c2cccc(C(=O)NCc3cccc([N+](=O)[O-])c3)c2)c1 | IC50 (MMP13 IC50 (nM), Table II): 2.1 µM
82 |  | O=C(NCc1ccncc1)c1cccc(C(=O)NCc2ccc(Cl)c(Cl)c2)c1 | IC50 (MMP13 IC50 (nM), Table II): 2.5 µM
83 |  | COc1ccc(C(=O)NCCOc2ccccc2)cc1C(=O)NCc1ccc2c(c1)OCO2 | IC50 (MMP13 IC50 (nM), Table II): 3.1 µM
84 |  | CCOCCNC(=O)c1ccc(OC)c(C(=O)NCc2ccc3c(c2)OCO3)c1 | IC50 (MMP13 IC50 (nM), Table II): 5.7 µM
85 |  | COc1ccc(CNC(=O)c2ccc(OC)c(C(=O)NCc3ccccc3)c2)cc1 [listing 2 of 2 here] | IC50 (MMP13 IC50 (nM), Table II): 0.81 µM
86 | 0.0022 | COc1ccc(CNC(=O)c2ccc3c(c2)c(=O)n(Cc2ccc(CC(=O)O)cc2)c(=O)n3C)cc1 | 
87 | 0.315 | COC(=O)/C=C/Cn1c(=O)c2cc(C(=O)NCc3ccc(OC)cc3)ccc2n(C)c1=O | 
88 | 0.0665 | COc1ccc(CNC(=O)c2ccc3c(c2)c(=O)n(Cc2ccc(C4(C(=O)OC(C)(C)C)CC4)cc2)c(=O)n3C)cc1 | 
